Assay results from patent publication US10793547B2, “Modulator of the cystic fibrosis transmembrane conductance regulator, pharmaceutical compositions, methods of treatment, and process for making the modulator” (Vertex Pharmaceuticals Incorporated, priority 2016, dated 2020).
Like-named read-outs stand apart in the source and are kept apart here.

Legend:
MDCK-Wild Type = MDCK-Wild Type permeability, 96 well + 0.1% BSA; type: in vitro ADME; settings: A-B direction
Rat hepatocytes = assay: Hepatocyte clearance, rat hepatocytes; type: in vitro ADME; settings: percent unchanged
human PXR = molecular target: T1, human PXR (Homo sapiens, UniProt O75469); assay: PXR assay: PXR mediated CYP3A4 induction in DPX-2 cell line; type: cell-based; settings: DPX-2 cells
T1 construct: host or cells: DPX-2 cell line (derived from HepG2)
T1 sequence (O75469 1-434): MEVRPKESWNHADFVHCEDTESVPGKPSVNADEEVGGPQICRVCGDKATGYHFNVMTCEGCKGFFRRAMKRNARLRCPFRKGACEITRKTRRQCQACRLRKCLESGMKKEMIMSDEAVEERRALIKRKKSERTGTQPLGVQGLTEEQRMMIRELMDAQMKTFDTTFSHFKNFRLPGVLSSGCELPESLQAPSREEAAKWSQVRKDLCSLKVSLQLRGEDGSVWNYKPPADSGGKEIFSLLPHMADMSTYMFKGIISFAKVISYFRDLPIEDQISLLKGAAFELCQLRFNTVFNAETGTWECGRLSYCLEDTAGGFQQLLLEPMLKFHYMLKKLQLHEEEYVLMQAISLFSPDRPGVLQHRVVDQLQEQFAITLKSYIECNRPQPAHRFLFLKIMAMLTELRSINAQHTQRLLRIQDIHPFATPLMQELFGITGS
Outline: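 HepG2-derived DPX-2 cells stably carrying human PXR and a CYP3A4 promoter/enhancer–luciferase reporter; 11 doses from 0.1 to 60 μM for 48 h, rifampicin as positive control. Viability read by fluorescence, then luciferase luminescence; max fold induction over vehicle and EC50 reported.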

F508del-CFTR = molecular target: T2, F508del-CFTR (Homo sapiens, UniProt P13569, DEL508-508); assay: Membrane potential optical (FLIPR) assay for F508del-CFTR modulators in NIH 3T3 cells; type: cell-based; settings: for EC50: assay A1
T2 construct: expressed in transfected cells
Outline: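 NIH3T3 mouse fibroblasts stably expressing F508del, seeded on matrigel and cultured 18-24 h at 37 °C; for correction, cells were cultured with or without compound for 18-24 h. Cells were loaded with voltage-sensing dye, then compound was added in one step with a chloride gradient (chloride replaced by gluconate). Membrane potential was read by fluorescence.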

[1] = MDCK-Wild Type permeability, 96 well + 0.1% BSA; type: in vitro ADME; settings: dog, MDCK, A-B direction, read-out: MDCK-Wild Type-Permeability 96 well + 0.1% BSA Papp compound (A-B)
[2] = system: F508del/F508del-HBE cells; assay: Ussing chamber chloride transport experiment; type: cell-based
Description: Ussing chamber experiments were performed on polarized airway epithelial cells expressing F508del to further characterize the F508del modulators identified in the optical assays. Non-CF and CF airway epithelia were isolated from bronchial tissue, cultured as previously described (Galietta, L. J. V., Lantero, S., Gazzolo, A., Sacco, O., Romano, L., Rossi, G. A., & Zegarra-Moran, O. (1998) In Vitro Cell. Dev. Biol. 34, 478-481), and plated onto Costar® Snapwell™ filters that were precoated with NIH3T3-conditioned media. After four days the apical media was removed and the cells were grown at an air liquid interface for >14 days prior to use. […] CF-HBE were isolated from patients homozygous for F508del or compound heterozygous for F508del with an different disease causing mutation on the other allele.
HBE grown on Costar® Snapwell™ cell culture inserts were mounted in an Ussing chamber (Physiologic Instruments, Inc., San Diego, Calif.), and the transepithelial resistance and short-circuit current in the presence of a basolateral to apical Cl^− gradient (ISC) were measured using a voltage-clamp system (Department of Bioengineering, University of Iowa, Iowa). Briefly, HBE were examined under voltage-clamp recording conditions (Vhold=0 mV) at 37° C. […]

Rat IV and PO PK studies = type: in vivo, male Sprague-Dawley rats
Description: C. Experimental Protocol for Rat IV and PO PK Studies
The tested compound was administered to male Sprague-Dawley rats as a single nominal intravenous dose of 3.0 mg/kg as a solution in 10% NMP, 10% solution, 15% EtOH, 35% PEG400 and 30% D5W. The tested compound was also administered to male Sprague-Dawley rats at single nominal oral dose of 3 mg/kg as a solution in 5% NMP, 30% PEG400, 10% TPGS, 5% PVP-K30 at 5 mL/kg dose volume. Analyses of plasma and dose preparations were performed using LC/MS/MS.
Plasma concentration-time profiles of the tested compound in Sprague-Dawley rats at scheduled (nominal) sampling times were analyzed by noncompartmental pharmacokinetic methods using PK function within Watson LIMS software, Version 7.4.2 (Thermo Scientific Inc, Waltham, Mass.). AUC values were calculated using the linear trapezoidal rule.

[3] = Metabolism of Compound 1 in vitro and in vivo
[4] = NIH 3T3 cells expressing F508del, read-out: CFTRdF508 Cor 3T3 FLIPR 384 CFTRdF508 MP 3T3 770 EC50

T2 sequence (P13569 with tags, fused parts or gaps DEL508-508): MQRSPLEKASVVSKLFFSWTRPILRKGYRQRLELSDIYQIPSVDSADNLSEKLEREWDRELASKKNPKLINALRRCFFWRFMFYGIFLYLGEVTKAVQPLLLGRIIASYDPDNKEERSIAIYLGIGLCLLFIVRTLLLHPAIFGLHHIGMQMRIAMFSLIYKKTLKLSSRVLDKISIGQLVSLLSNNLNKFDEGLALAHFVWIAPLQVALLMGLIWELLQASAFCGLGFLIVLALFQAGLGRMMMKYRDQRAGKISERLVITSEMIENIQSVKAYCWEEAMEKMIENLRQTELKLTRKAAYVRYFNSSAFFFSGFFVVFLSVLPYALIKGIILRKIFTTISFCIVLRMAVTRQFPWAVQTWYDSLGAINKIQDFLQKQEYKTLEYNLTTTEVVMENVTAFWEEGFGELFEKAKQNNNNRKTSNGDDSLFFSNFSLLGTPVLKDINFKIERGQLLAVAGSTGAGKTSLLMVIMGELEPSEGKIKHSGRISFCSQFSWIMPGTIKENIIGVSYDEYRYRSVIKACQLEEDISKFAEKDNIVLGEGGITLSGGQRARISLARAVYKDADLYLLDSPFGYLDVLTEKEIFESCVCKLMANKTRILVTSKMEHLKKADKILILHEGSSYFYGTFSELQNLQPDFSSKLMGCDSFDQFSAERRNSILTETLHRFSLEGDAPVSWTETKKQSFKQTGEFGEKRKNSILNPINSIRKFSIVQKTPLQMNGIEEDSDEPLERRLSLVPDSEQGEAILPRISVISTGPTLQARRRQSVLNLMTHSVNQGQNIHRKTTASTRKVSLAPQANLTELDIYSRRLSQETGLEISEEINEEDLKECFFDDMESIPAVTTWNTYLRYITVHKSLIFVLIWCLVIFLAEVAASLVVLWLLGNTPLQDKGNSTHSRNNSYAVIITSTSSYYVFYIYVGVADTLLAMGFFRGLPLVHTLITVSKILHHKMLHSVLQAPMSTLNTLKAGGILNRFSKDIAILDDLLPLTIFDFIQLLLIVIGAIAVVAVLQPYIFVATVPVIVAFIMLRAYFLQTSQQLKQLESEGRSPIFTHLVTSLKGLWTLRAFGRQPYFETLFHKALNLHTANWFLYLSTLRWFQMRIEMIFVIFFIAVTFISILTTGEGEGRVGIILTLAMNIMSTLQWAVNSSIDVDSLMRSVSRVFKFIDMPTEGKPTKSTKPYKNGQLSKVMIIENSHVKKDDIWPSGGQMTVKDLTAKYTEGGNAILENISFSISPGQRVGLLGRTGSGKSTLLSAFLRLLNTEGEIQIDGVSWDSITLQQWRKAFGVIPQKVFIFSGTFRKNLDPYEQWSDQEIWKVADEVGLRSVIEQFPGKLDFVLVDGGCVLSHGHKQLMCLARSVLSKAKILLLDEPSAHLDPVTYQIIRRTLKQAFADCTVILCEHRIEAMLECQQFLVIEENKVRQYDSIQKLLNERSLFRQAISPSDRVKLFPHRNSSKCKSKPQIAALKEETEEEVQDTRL

MDCK-Wild Type-Permeability 96 well + 0.1% BSA Papp compound (A-B) (MDCK-Wild Type)	Hepatocyte clearance-Rat Rat hepatocytes CL pct_unchanged (Rat hepatocytes)	CYP3A4 Induction-PXR human PXR internal Max % Activity (human PXR)	EC50 (F508del-CFTR; [4])	Papp A→B [1]	RAT PLASMA-RAW IV-bolus CL_drg (Rat IV and PO PK studies; IV bolus, nominal 3.0 mg/kg)	RAT PLASMA-RAW PO % F_drg (Rat IV and PO PK studies; PO, nominal 3 mg/kg)	AUC(0-inf) (Rat IV and PO PK studies; male, Sprague-Dawley, plasma, PO, nominal 3 mg/kg, read-out: RAT PLASMA-RAW PO AUC (0-inf)_drg)	Emax (F508del-CFTR; NIH3T3, assay A1, read-out: % Efficacy relative to Compound II)	EC50 (F508del-CFTR; read-out: EC50)	metabolite identity [3]	SMILES	effect on chloride transport in combination with Compound II [2]	chloride transport ([2]; Compound 1 alone)	metabolism ([3]; in vitro and in vivo)
5.5 10E-6 cm/s	54%	21%	1400 nM	–	–	–	–	–	–	–	Cc1nn(C)cc1S(=O)(=O)NC(=O)c1ccc(-n2ccc(OC3CC3C(F)(F)F)n2)nc1N1C[C@@H](C)CC1(C)C (stereo partly drawn) [Compound 35, N-(1,3-dimethylpyrazol-4-yl)sulfonyl-6-[3-[2-(trifluoromethyl)cyclopropoxy]pyrazol-1-yl]-2-[(4S)-2,2,4-trimethylpyrrolidin-1-yl]pyridine-3-carboxamide]	–	–	–
–	66%	2%	70 nM	4.5 ×10⁻⁶ cm/s	1.6 mL/min/kg	83%	23500 ng·h/mL	≥ 100%	< 3000 nM	–	Cc1nn(C)cc1S(=O)(=O)NC(=O)c1ccc(-n2ccc(OCC(C)(C)C(F)(F)F)n2)nc1N1C[C@@H](C)CC1(C)C [Compound 1, N-(1,3-dimethylpyrazol-4-yl)sulfonyl-6-[3-(3,3,3-trifluoro-2,2-dimethyl-propoxy)pyrazol-1-yl]-2-[(4S)-2,2,4-trimethylpyrrolidin-1-yl]pyridine-3-carboxamide]	additive to the effect of Compound II	enhanced chloride transport	metabolized both in vitro and in vivo, mostly by oxidative metabolism
–	30%	1%	410 nM	1.1 ×10⁻⁶ cm/s	–	–	–	–	–	metabolites of Compound 1	Cc1n[nH]cc1S(=O)(=O)NC(=O)c1ccc(-n2ccc(OCC(C)(C)C(F)(F)F)n2)nc1N1C[C@@H](C)CC1(C)C [Compound 31, (S)—N-((3-methyl-1H-pyrazol-4-yl)sulfonyl)-6-(3-(3,3,3-trifluoro-2,2-dimethylpropoxy)-1H-pyrazol-1-yl)-2-(2,2,4-trimethylpyrrolidin-1-yl)nicotinamide]	–	–	–
